Assays:
[1] = tested on: recombinant human anti-SARS-CoV antibody 03-018; format: binding; design: Binding of antibody 03-018 to linear peptides of the N protein of SARS-CoV Urbani / Binding of antibody 03-018 to looped/cyclic peptides of the N protein of SARS-CoV Urbani: unit not given here
[2] = tested on: rabbit serum obtained by immunizing a rabbit with the SARS-CoV strain Frankfurt 1; format: binding; design: Binding of a rabbit serum to linear peptides / Binding of a rabbit serum to looped peptides / Rabbit serum linear peptides / Rabbit serum looped peptides / Binding of a rabbit serum to linear peptides of protein N of SARS-CoV Urbani (Rabbit serum linear peptides) / Binding of a rabbit serum to looped/cyclic peptides of protein N of SARS-CoV Urbani (Rabbit serum looped peptides): unit not given here
[3] = tested on: control sera (pooled serum of ten healthy LUMC hospital workers; commercial negative donor pooled serum from the Dutch bloodbank); format: binding, human; design: Binding of Control serum LUMC to linear peptides / Binding of Control serum Blood-bank to linear peptides / Binding of Control serum LUMC to looped peptides / Binding of Control Serum Blood-Bank to Looped peptides / Binding of Control serum LUMC to linear peptides of the protein M of SARS-CoV Urbani / Binding of Control serum Blood-bank to linear peptides of the protein M of SARS-CoV Urbani / Binding of Control serum LUMC to looped peptides of the protein M of SARS-CoV Urbani / Binding of Control Serum Blood-Bank to Looped peptides of the protein M of SARS-CoV Urbani: unit not given here
[4] = tested on: antibodies in sera from SARS patients (sera 1a, 1b, 2, 6, 37, 62, London, SARS-yellow, SARS-green); format: binding, human; design: Binding of serum 6 to linear peptides of protein X1 of SARS-CoV Urbani / Binding of serum 37 to linear peptides of protein X1 of SARS-CoV Urbani / Binding of serum 6 to looped/cyclic peptide (PEPSCAN-ELISA) / Binding of serum 37 to looped/cyclic peptide (PEPSCAN-ELISA) / Binding of serum 37 to looped/cyclic peptides of protein X1 of SARS-CoV Urbani / Binding of serum 6 to linear peptides of protein X2 / Binding of serum 37 to linear peptides of protein X2 / Binding of serum 37 to looped/cyclic peptides of protein X2 of SARS-CoV Urbani / Binding of serum 6 to linear peptides of protein M of SARS-CoV Urbani / Binding of serum 37 to linear peptides of protein M of SARS-CoV Urbani / Binding of serum 6 to looped/cyclic peptides of protein M of SARS-CoV Urbani / Binding of serum 37 to looped/cyclic peptides of protein M of SARS-CoV Urbani / Binding of serum 6 to linear peptides of protein X3 of SARS-CoV Urbani / Binding of serum 37 to linear peptides of protein X3 of SARS-CoV Urbani / Binding of serum 37 to looped/cyclic peptides of protein X3 of SARS-CoV Urbani / Binding of serum 6 to linear peptides of protein X4 of SARS-CoV Urbani / Binding of serum 37 to linear peptides of protein X4 of SARS-CoV Urbani / Binding of serum 37 to looped/cyclic peptides of protein X4 of SARS-CoV Urbani / Binding of serum 6 to linear peptides of protein X5 of SARS-CoV Urbani / Binding of serum 37 to linear peptides of protein X5 of SARS-CoV Urbani / Binding of serum 37 to looped/cyclic peptides of protein X5 of SARS-CoV Urbani / Binding of serum 6 to linear peptides of protein N of SARS-CoV Urbani / Binding of serum 37 to linear peptides of protein N of SARS-CoV Urbani / Binding of serum 6 to linear peptide (PEPSCAN-ELISA) / Binding of serum 1a to looped/cyclic peptides of protein N of SARS-CoV Urbani / Binding of serum 1b to looped/cyclic peptides of protein N of SARS-CoV Urbani / Binding of serum 2 to looped/cyclic peptides of protein N of SARS-CoV Urbani / Binding of serum 6 to looped/cyclic peptides of protein N of SARS-CoV Urbani / Binding of serum 37 to looped/cyclic peptides of protein N of SARS-CoV Urbani / Binding of serum 62 to looped/cyclic peptides of protein N of SARS-CoV Urbani / Binding of serum London to looped/cyclic peptides of protein N of SARS-CoV Urbani / Binding of serum SARS-green to looped/cyclic peptides of protein N of SARS-CoV Urbani: unit not given here

AATVLQLPQGTTLPK
Binding of antibody 03-018 to linear peptides of the N protein of SARS-CoV Urbani [1]: 0.1
Binding of antibody 03-018 to looped/cyclic peptides of the N protein of SARS-CoV Urbani [1]: 0.2
Binding of a rabbit serum to linear peptides of protein N of SARS-CoV Urbani (Rabbit serum linear peptides) [2]: 0.3
Binding of a rabbit serum to looped/cyclic peptides of protein N of SARS-CoV Urbani (Rabbit serum looped peptides) [2]: 1.2

ARMASGGGETALALL
Binding of antibody 03-018 to linear peptides of the N protein of SARS-CoV Urbani [1]: 0.1
Binding of antibody 03-018 to looped/cyclic peptides of the N protein of SARS-CoV Urbani [1]: 0.3
Binding of Control Serum Blood-Bank to Looped peptides [3]: 0.6
Binding of Control serum Blood-bank to linear peptides [3]: 0.8
Binding of Control serum LUMC to linear peptides [3]: 0.7
Binding of Control serum LUMC to looped peptides [3]: 0.8
Binding of a rabbit serum to linear peptides of protein N of SARS-CoV Urbani (Rabbit serum linear peptides) [2]: 0.2
Binding of a rabbit serum to looped/cyclic peptides of protein N of SARS-CoV Urbani (Rabbit serum looped peptides) [2]: 0.0

DPQFKDNVILLNKHI
Binding of antibody 03-018 to linear peptides of the N protein of SARS-CoV Urbani [1]: 0.1
Binding of antibody 03-018 to looped/cyclic peptides of the N protein of SARS-CoV Urbani [1]: 0.3
Binding of a rabbit serum to linear peptides of protein N of SARS-CoV Urbani (Rabbit serum linear peptides) [2]: 0.2
Binding of a rabbit serum to looped/cyclic peptides of protein N of SARS-CoV Urbani (Rabbit serum looped peptides) [2]: 0.7

KDPQFKDNVILLNKH
Binding of antibody 03-018 to linear peptides of the N protein of SARS-CoV Urbani [1]: 0.1
Binding of antibody 03-018 to looped/cyclic peptides of the N protein of SARS-CoV Urbani [1]: 0.2
Binding of a rabbit serum to linear peptides of protein N of SARS-CoV Urbani (Rabbit serum linear peptides) [2]: 0.2
Binding of a rabbit serum to looped/cyclic peptides of protein N of SARS-CoV Urbani (Rabbit serum looped peptides) [2]: 0.5

LDDKDPQFKDNVILL
Binding of antibody 03-018 to linear peptides of the N protein of SARS-CoV Urbani [1]: 0.1
Binding of antibody 03-018 to looped/cyclic peptides of the N protein of SARS-CoV Urbani [1]: 0.3
Binding of a rabbit serum to linear peptides of protein N of SARS-CoV Urbani (Rabbit serum linear peptides) [2]: 0.1
Binding of a rabbit serum to looped/cyclic peptides of protein N of SARS-CoV Urbani (Rabbit serum looped peptides) [2]: 0.2

STPGSSRGNSPARMA
Binding of serum 1a to linear peptide (PEPSCAN-ELISA) [4]: 0.5
Binding of serum 1a to looped/cyclic peptides of protein N of SARS-CoV Urbani [4]: 0.3
Binding of serum 1b to linear peptide (PEPSCAN-ELISA) [4]: 0.3
Binding of serum 1b to looped/cyclic peptides of protein N of SARS-CoV Urbani [4]: 0.2
Binding of serum 2 to linear peptide (PEPSCAN-ELISA) [4]: 0.4
Binding of serum 2 to looped/cyclic peptides of protein N of SARS-CoV Urbani [4]: 0.4
Binding of serum 6 to linear peptide (PEPSCAN-ELISA) [4]: 0.3
Binding of serum 6 to looped/cyclic peptides of protein N of SARS-CoV Urbani [4]: 0.4
Binding of serum 37 to linear peptide (PEPSCAN-ELISA) [4]: 0.7
Binding of serum 37 to looped/cyclic peptides of protein N of SARS-CoV Urbani [4]: 0.6
Binding of serum 62 to linear peptide (PEPSCAN-ELISA) [4]: 0.8
Binding of serum 62 to looped/cyclic peptides of protein N of SARS-CoV Urbani [4]: 0.5
Binding of serum London to linear peptide (PEPSCAN-ELISA) [4]: 0.5
Binding of serum London to looped/cyclic peptides of protein N of SARS-CoV Urbani [4]: 0.5
Binding of serum SARS-green to linear peptide (PEPSCAN-ELISA) [4]: 0.8
Binding of serum SARS-green to looped/cyclic peptides of protein N of SARS-CoV Urbani [4]: 0.2
Binding of serum SARS-yellow to linear peptide (PEPSCAN-ELISA) [4]: 0.7
Binding of serum SARS-yellow to looped/cyclic peptides of protein N of SARS-CoV Urbani [4]: 0.5
Binding of antibody 03-018 to linear peptides of the N protein of SARS-CoV Urbani [1]: 0.1
Binding of antibody 03-018 to looped/cyclic peptides of the N protein of SARS-CoV Urbani [1]: 0.2
Recognition of the peptide by the rabbit serum [2]: recognized

YSTAWLCALGKVLPF
Binding of serum 1a to linear peptides of protein X5 of SARS-CoV Urbani [4]: 0.7
Binding of serum 1a to looped/cyclic peptides of protein X5 of SARS-CoV Urbani [4]: 0.5
Binding of serum 1b to linear peptides of protein X5 of SARS-CoV Urbani [4]: 0.6
Binding of serum 1b to looped/cyclic peptides of protein X5 of SARS-CoV Urbani [4]: 0.3
Binding of serum 2 to linear peptides of protein X5 of SARS-CoV Urbani [4]: 0.7
Binding of serum 2 to looped/cyclic peptides of protein X5 of SARS-CoV Urbani [4]: 0.5
Binding of serum 6 to linear peptides of protein X5 of SARS-CoV Urbani [4]: 0.6
Binding of serum 6 to looped/cyclic peptides of protein X5 of SARS-CoV Urbani [4]: 0.6
Binding of serum 37 to linear peptides of protein X5 of SARS-CoV Urbani [4]: 0.6
Binding of serum 37 to looped/cyclic peptides of protein X5 of SARS-CoV Urbani [4]: 0.5
Binding of serum 62 to linear peptides of protein X5 of SARS-CoV Urbani [4]: 0.8
Binding of serum 62 to looped/cyclic peptides of protein X5 of SARS-CoV Urbani [4]: 0.8
Binding of serum London to linear peptides of protein X5 of SARS-CoV Urbani [4]: 0.8
Binding of serum London to looped/cyclic peptides of protein X5 of SARS-CoV Urbani [4]: 0.4
Binding of serum SARS-green to linear peptides of protein X5 of SARS-CoV Urbani [4]: 0.5
Binding of serum SARS-green to looped/cyclic peptides of protein X5 of SARS-CoV Urbani [4]: 0.2
Binding of serum SARS-yellow to linear peptides of protein X5 of SARS-CoV Urbani [4]: 0.4
Binding of serum SARS-yellow to looped/cyclic peptides of protein X5 of SARS-CoV Urbani [4]: 0.9
Binding of Control Serum Blood-Bank to Looped peptides [3]: 0.4
Binding of Control serum Blood-bank to linear peptides [3]: 0.8
Binding of Control serum LUMC to linear peptides [3]: 0.5
Binding of Control serum LUMC to looped peptides [3]: 0.5
Rabbit serum linear peptides [2]: 0.7
Rabbit serum looped peptides [2]: 1.0

YYQLESTQITTDTGI
Binding of serum 1a to linear peptides of protein X1 of SARS-CoV Urbani [4]: 0.7
Binding of serum 1a to looped/cyclic peptides of protein X1 of SARS-CoV Urbani [4]: 0.4
Binding of serum 1b to linear peptides of protein X1 of SARS-CoV Urbani [4]: 0.7
Binding of serum 1b to looped/cyclic peptides of protein X1 of SARS-CoV Urbani [4]: 0.3
Binding of serum 2 to linear peptides of protein X1 of SARS-CoV Urbani [4]: 0.4
Binding of serum 2 to looped/cyclic peptides of protein X1 of SARS-CoV Urbani [4]: 0.2
Binding of serum 6 to linear peptides of protein X1 of SARS-CoV Urbani [4]: 0.5
Binding of serum 6 to looped/cyclic peptides of protein X1 of SARS-CoV Urbani [4]: 0.2
Binding of serum 37 to linear peptides of protein X1 of SARS-CoV Urbani [4]: 0.7
Binding of serum 37 to looped/cyclic peptides of protein X1 of SARS-CoV Urbani [4]: 0.5
Binding of serum 62 to linear peptides of protein X1 of SARS-CoV Urbani [4]: 0.5
Binding of serum 62 to looped/cyclic peptides of protein X1 of SARS-CoV Urbani [4]: 0.4
Binding of serum London to linear peptides of protein X1 of SARS-CoV Urbani [4]: 0.2
Binding of serum London to looped/cyclic peptides of protein X1 of SARS-CoV Urbani [4]: 0.2
Binding of serum SARS-green to linear peptides of protein X1 of SARS-CoV Urbani [4]: 0.2
Binding of serum SARS-green to looped/cyclic peptides of protein X1 of SARS-CoV Urbani [4]: 0.3
Binding of serum SARS-yellow to linear peptides of protein X1 of SARS-CoV Urbani [4]: 0.3
Binding of serum SARS-yellow to looped/cyclic peptides of protein X1 of SARS-CoV Urbani [4]: 0.3
Binding of Control Serum Blood-Bank to Looped peptides [3]: 0.4
Binding of Control serum Blood-bank to linear peptides [3]: 0.4
Binding of Control serum LUMC to linear peptides [3]: 0.5
Binding of Control serum LUMC to looped peptides [3]: 0.4
Binding of a rabbit serum to linear peptides [2]: 0.1
Binding of a rabbit serum to looped peptides [2]: 0.6

— patent US20070128217A1 (priority 2003, published 2007)
